Source: ChEMBL document CHEMBL1201862, “PubChem BioAssay data set” (2004)
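A five-concentration, 48-hour dose response in 96-well plates underlies each endpoint, interpolated linearly between surrounding concentrations. At the GI50, growth is halved.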 The source made the active and inactive calls. Cut-off read from the data, not from the text of the source: active = GI50 up to about 1.1 µM and inactive = higher.

Columns and labels:
Assay in all cases: NCI tumour cell line growth inhibition, 48 h
[1] = system: IGROV-1
[2] = system: U-251
[3] = system: A549
[4] = system: SK-OV-3
[5] = system: RPMI-8226
[6] = system: SNB-19
[7] = system: LOX IMVI
[8] = system: KM12
[9] = system: HL-60
[10] = system: HOP-62
[11] = system: RXF 393
[12] = system: NCI-H226
[13] = system: NCI-H460
[14] = system: HOP-92
[15] = system: NCI-H522
[16] = system: CAKI-1
[17] = system: Malme-3M

Row | SMILES | GI50 [1] | GI50 [2] | GI50 [3] | GI50 [4] | GI50 [5] | GI50 [6] | GI50 [7] | GI50 [8] | GI50 [9] | GI50 [10] | GI50 [11] | GI50 [12] | GI50 [13] | GI50 [14] | GI50 [15] | GI50 [16] | GI50 [17]
1 | NC(Cc1ccccc1)C(=O)OCN1C(=O)C2C3C=CC(C2C1=O)C1C2C(=O)N(COC(=O)C(N)Cc4ccccc4)C(=O)C2C31 (stereo not given) | 35.6 µM (inactive) | 20.7 µM (inactive) | 25.9 µM (inactive) | 50.2 µM (inactive) | 27.2 µM (inactive) | 50.1 µM (inactive) | 21.4 µM (inactive) | 21.3 µM (inactive) | 23.7 µM (inactive) | > 100 µM (inactive) | 22.5 µM (inactive) | 46.7 µM (inactive) | 14.4 µM (inactive) | 32 µM (inactive) | – | – | –
2 | Cn1c(=O)nc2n(-c3cccc(Cl)c3)c3ccccc3nc-2c1=O | 24.8 µM (inactive) | 15.3 µM (inactive) | 11.4 µM (inactive) | 78.9 µM (inactive) | 15.5 µM (inactive) | > 10 µM (inactive) | 18.7 µM (inactive) | 11.2 µM (inactive) | – | 28.6 µM (inactive) | 21.5 µM (inactive) | 22 µM (inactive) | 6.4 µM (inactive) | – | 15.1 µM (inactive) | 33.7 µM (inactive) | 3.5 µM (inactive)
3 | COc1cc(CNC2c3cc4c(cc3C(c3cc(OC)c(OC)c(OC)c3)[C@H]3C(=O)OCC23)OCO4)cc(OC)c1OC (stereo not given in full) | 1.1 µM (active) | 0.318 µM (active) | 0.417 µM (active) | 0.385 µM (active) | 0.419 µM (active) | 0.272 µM (active) | 0.288 µM (active) | 0.177 µM (active) | 0.223 µM (active) | 0.231 µM (active) | 0.308 µM (active) | 0.128 µM (active) | 0.29 µM (active) | 0.528 µM (active) | 0.0661 µM (active) | – | > 100 µM (inactive)
4 | NC1=NN(c2ccccc2)C(=O)C1C(=O)C(=O)Nc1cccc(C(F)(F)F)c1 (stereo not given) | > 100 µM (inactive) | > 100 µM (inactive) | > 100 µM (inactive) | > 100 µM (inactive) | > 100 µM (inactive) | > 100 µM (inactive) | > 100 µM (inactive) | > 100 µM (inactive) | 89.3 µM (inactive) | > 100 µM (inactive) | – | > 100 µM (inactive) | > 100 µM (inactive) | 23.7 µM (inactive) | > 100 µM (inactive) | > 100 µM (inactive) | > 100 µM (inactive)
5 | CCOc1ccc(NC(=O)C(=O)CC(=O)C2=C(C)Nc3ccccc3S2)cc1 | > 50 µM (inactive) | > 50 µM (inactive) | > 50 µM (inactive) | > 50 µM (inactive) | > 50 µM (inactive) | > 50 µM (inactive) | > 50 µM (inactive) | > 50 µM (inactive) | – | > 50 µM (inactive) | > 50 µM (inactive) | > 50 µM (inactive) | > 50 µM (inactive) | > 50 µM (inactive) | > 50 µM (inactive) | > 50 µM (inactive) | > 50 µM (inactive)
6 | Cc1ccc(C2=C(c3ccccc3)C(O)(c3ccc(C)cc3)C(c3ccccc3)=C2c2ccc(C)cc2)cc1 | > 100 µM (inactive) | > 100 µM (inactive) | > 100 µM (inactive) | > 100 µM (inactive) | 54.6 µM (inactive) | > 100 µM (inactive) | > 100 µM (inactive) | > 100 µM (inactive) | 14.4 µM (inactive) | > 100 µM (inactive) | – | – | > 100 µM (inactive) | > 100 µM (inactive) | – | 99.5 µM (inactive) | > 100 µM (inactive)
7 | Cc1ccc(C(=O)/C=C/c2ccccc2Cl)cc1 | 18.4 µM (inactive) | 14.7 µM (inactive) | 33.7 µM (inactive) | 39.4 µM (inactive) | 15.8 µM (inactive) | 18.4 µM (inactive) | – | 15.7 µM (inactive) | 16.4 µM (inactive) | 68.5 µM (inactive) | – | 25.1 µM (inactive) | 14.9 µM (inactive) | 30.1 µM (inactive) | 14 µM (inactive) | 16.8 µM (inactive) | 23.5 µM (inactive)
8 | CNC(=O)N(CCCCC(NC(C)=O)C(=O)NCc1ccccc1)Cc1ccccc1 (stereo not given) | > 100 µM (inactive) | > 100 µM (inactive) | > 100 µM (inactive) | > 100 µM (inactive) | > 100 µM (inactive) | > 100 µM (inactive) | > 100 µM (inactive) | > 100 µM (inactive) | – | > 100 µM (inactive) | > 100 µM (inactive) | > 100 µM (inactive) | > 100 µM (inactive) | > 100 µM (inactive) | > 100 µM (inactive) | > 100 µM (inactive) | > 100 µM (inactive)
9 | O=S(=O)(/C=C/CS(=O)(=O)c1ccccc1)c1ccccc1 | 39.8 µM (inactive) | 25.8 µM (inactive) | 22.4 µM (inactive) | 29.3 µM (inactive) | 18.8 µM (inactive) | 34.7 µM (inactive) | 17.3 µM (inactive) | 13.8 µM (inactive) | 15.1 µM (inactive) | 24.9 µM (inactive) | 26.9 µM (inactive) | 19.3 µM (inactive) | 21.9 µM (inactive) | 45 µM (inactive) | – | – | 29.6 µM (inactive)
10 | CCCCCCCCCCCCCCCCCCOCC(C[N+]1(C)CCC(O)CC1)OCC (stereo not given) | 5.13 µM (inactive) | – | 5.87 µM (inactive) | 2.92 µM (inactive) | 2.77 µM (inactive) | 6.73 µM (inactive) | – | 1.84 µM (inactive) | 1.79 µM (inactive) | 4.23 µM (inactive) | – | 3.08 µM (inactive) | – | 1.78 µM (inactive) | 5.71 µM (inactive) | 5.65 µM (inactive) | 12.3 µM (inactive)
11 | COc1ccc(/C=C/c2nnc(S)[nH]2)cc1 | > 100 µM (inactive) | > 100 µM (inactive) | > 100 µM (inactive) | – | > 100 µM (inactive) | > 100 µM (inactive) | > 100 µM (inactive) | – | > 100 µM (inactive) | – | > 100 µM (inactive) | > 100 µM (inactive) | > 100 µM (inactive) | > 100 µM (inactive) | > 100 µM (inactive) | > 100 µM (inactive) | > 100 µM (inactive)
12 | Cc1cc(NS(=O)(=O)c2ccc(Nc3c4ccccc4nc4c(C(=O)NCCN(C)C)ccc(Cl)c34)cc2)no1 | 3.56 µM (inactive) | 2.42 µM (inactive) | 3.66 µM (inactive) | – | – | 2.67 µM (inactive) | 1.48 µM (inactive) | 4.91 µM (inactive) | 1.14 µM (inactive) | 4.57 µM (inactive) | 7.6 µM (inactive) | 1.85 µM (inactive) | 1.36 µM (inactive) | – | 0.54 µM (active) | – | –
13 | CC1=C(/C(C)=N/NC(=O)c2ccccc2O)C(C)C(/C(C)=N/NC(=O)c2ccccc2O)=C(C)N1 | 10.6 µM (inactive) | 28.7 µM (inactive) | 21.5 µM (inactive) | 38.1 µM (inactive) | – | 30.5 µM (inactive) | 18.3 µM (inactive) | 31.4 µM (inactive) | 5.04 µM (inactive) | 25.1 µM (inactive) | 4.73 µM (inactive) | – | 18 µM (inactive) | 28.8 µM (inactive) | 17.5 µM (inactive) | 28.1 µM (inactive) | 29.4 µM (inactive)
14 | O/N=C1/C(=C/c2ccc(Br)cc2)CCCC1C(NO)c1ccc(Br)cc1 (stereo not given) | 17.1 µM (inactive) | 18.9 µM (inactive) | 15.4 µM (inactive) | 24.7 µM (inactive) | 17.8 µM (inactive) | 15.8 µM (inactive) | 20.4 µM (inactive) | 19.2 µM (inactive) | > 100 µM (inactive) | – | 15.6 µM (inactive) | – | > 10 µM (inactive) | 12.6 µM (inactive) | 16 µM (inactive) | – | 15.7 µM (inactive)
15 | Cc1cc(OC(=O)c2c(C)cc(OC(=O)c3c(C)cc(O)cc3O)cc2O)cc(O)c1C(=O)O [GYROPHORIC ACID] | > 100 µM (inactive) | > 100 µM (inactive) | > 100 µM (inactive) | > 100 µM (inactive) | > 100 µM (inactive) | > 100 µM (inactive) | > 100 µM (inactive) | > 100 µM (inactive) | > 100 µM (inactive) | > 100 µM (inactive) | > 100 µM (inactive) | – | > 100 µM (inactive) | 69.5 µM (inactive) | > 100 µM (inactive) | > 100 µM (inactive) | > 100 µM (inactive)
16 | CC1(C)CC(C2CC(C)(C)CC(C)(C)[C@H]2O)[C@@H](O)C(C)(C)C1 (stereo not given in full) | > 100 µM (inactive) | > 100 µM (inactive) | > 100 µM (inactive) | > 100 µM (inactive) | > 100 µM (inactive) | > 100 µM (inactive) | > 100 µM (inactive) | > 100 µM (inactive) | > 100 µM (inactive) | > 10 µM (inactive) | – | > 100 µM (inactive) | > 100 µM (inactive) | – | > 100 µM (inactive) | – | > 100 µM (inactive)
17 | CC(=O)OC1C=CC2CCN3C(=O)c4cc5c(cc4[C@H]1C23)OCO5 (stereo not given in full) | > 100 µM (inactive) | > 100 µM (inactive) | > 100 µM (inactive) | > 100 µM (inactive) | > 100 µM (inactive) | > 100 µM (inactive) | > 100 µM (inactive) | > 100 µM (inactive) | > 100 µM (inactive) | > 100 µM (inactive) | > 100 µM (inactive) | > 100 µM (inactive) | > 100 µM (inactive) | – | > 100 µM (inactive) | – | > 100 µM (inactive)
18 | C#CC[N+](C)(CC#C)CC#C | > 100 µM (inactive) | – | > 100 µM (inactive) | > 100 µM (inactive) | > 100 µM (inactive) | > 100 µM (inactive) | > 100 µM (inactive) | > 100 µM (inactive) | > 100 µM (inactive) | > 100 µM (inactive) | > 100 µM (inactive) | – | > 100 µM (inactive) | > 100 µM (inactive) | > 100 µM (inactive) | > 100 µM (inactive) | > 100 µM (inactive)
